# Literature values as cited in patent publication US8586590B2, “Compounds” (GlaxoSmithKline Intellectual Property Development Limited, priority 2009, dated 2013).
# Legend:
# neutrophils = conditions: treatment of neutrophils; Thelen et al. 1994
Structure (SMILES),neutrophil migration (neutrophil),superoxide release (neutrophil),inhibitory activity on phospholipases (phospholipases),fMLP-induced respiratory burst response (neutrophils)
O=c1cc(N2CCOCC2)oc2c(-c3ccccc3)cccc12 [LY294002],block,block,some inhibitory activity,
COC[C@H]1OC(=O)c2coc3c2[C@@]1(C)C1=C(C3=O)[C@@H]2CCC(=O)[C@@]2(C)C[C@H]1OC(C)=O [wortmannin],block,block,,prevents the fMLP-induced respiratory burst response
